Measured values as given in PubChem BioAssay (NCI).
“And” between values parts separate entries of the source, which are not always exact repeats. Identical values can stand only once.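 These data come from cells grown in 96-well plates and exposed to compound for 48 hours at five concentrations. GI50 marks 50% less growth. At the TGI there is no net growth.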

Legend:
Experiment in all cases: DTP human tumour cell line panel, 48 h
[1] = system: UACC-257 melanoma
[2] = system: RXF 393 renal
[3] = system: SK-MEL-2 melanoma
[4] = system: CCRF-CEM leukemia
[5] = system: COLO 205 colon
[6] = system: SK-MEL-28 melanoma
[7] = system: HOP-62 NSCLC
[8] = system: MDA-N
[9] = system: SW-620 colon
[10] = system: OVCAR-4 ovarian

Row | Compound | TGI [1] | TGI [2] [µM] | TGI [3] | TGI [4] | TGI [5] | TGI [6] | TGI [7] | TGI [8] | TGI [9] | TGI [10] | GI50 [1] [µM] | GI50 [4] [µM] | GI50 [5] [µM] | GI50 [6] [µM] | GI50 [8] [µM] | GI50 [10] [µM]
1 | O=c1[nH]nc(Nc2ccccc2)c2nnn(Cc3ccccc3)c12 | > 100 µM | > 100 | > 100 µM | > 100 µM | > 100 µM | > 100 µM | 24 µM | > 100 µM | > 100 µM | > 100 µM | – | – | – | – | – | –
2 | O=C(O)CC(Cc1ccccc1)C(=O)O (stereo unspecified) | > 100 µM | > 100 | > 100 µM | > 100 µM | > 100 µM | > 100 µM | > 100 µM | > 100 µM | > 100 µM | > 100 µM | – | – | – | – | – | –
3 | COc1cc2[nH]c(=O)[nH]c2c2c(C)c[nH]c12 | > 100 µM | > 100 | > 100 µM | > 100 µM | > 100 µM | > 100 µM | > 100 µM | > 100 µM | > 100 µM | > 100 µM | – | – | – | – | – | –
4 | Cc1cc([C@H](C#N)c2nc3ccccc3s2)nc(Cl)n1 | 22.4 µM | > 100 | > 100 µM | > 100 µM | 6.49 µM | 39.1 µM | > 100 µM | > 100 µM | 15.1 µM | > 100 µM | – | – | – | – | – | –
5 | Nc1nc(-c2ccccc2)cc(-c2ccc(F)cc2)c1-c1ccc(Cl)cc1 | > 100 µM | > 100 | > 100 µM | > 100 µM | > 100 µM | > 100 µM | > 100 µM | > 100 µM | > 100 µM | > 100 µM | – | – | – | – | – | –
6 | CC(=O)O/N=C1\C=Cc2c(no[n+]2[O-])C1=O | 32.2 µM | 28.5 | 32.7 µM | 17.6 µM | 22 µM | 36.9 µM | > 100 µM | 33.1 µM | 9.04 µM | 31.5 µM | – | – | – | – | – | –
7 | c1ccc2c3c(c(N4CCNCC4)nc2c1)CCCC3 | 20.6 µM | 22.7 | 25.2 µM | 31.4 µM | 18.9 µM | 31.1 µM | 48.4 µM | 28.3 µM | 35 µM | 31.5 µM | – | – | – | – | – | –
8 | O=C(O)C(C1NCCS1)N1Cc2ccccc2C1 (stereo unspecified) | > 100 µM | > 100 | > 100 µM | > 100 µM | > 100 µM | > 100 µM | > 100 µM | > 100 µM | > 100 µM | > 100 µM | – | – | – | – | – | –
9 | COC(=O)/C=C1\C(=O)N(C(C)=O)c2ccccc21 | 22.2 µM | 21.5 | 33.5 µM | 10.1 µM | 29.3 µM | 32.7 µM | 30.2 µM | 25.2 µM | > 100 µM | 17.5 µM | – | – | – | – | – | –
10 | CC1CN=C(c2ccc3c(c2)Cc2cc(C4=NCC(C)N4)ccc2-3)N1 (stereo unspecified) | > 100 µM | > 100 | 44.8 µM | > 100 µM | > 100 µM | > 100 µM | > 100 µM | > 100 µM | > 100 µM | 48.6 µM | – | – | – | – | – | –
11 | CS(=O)(=O)c1nc(-c2cc3c(c(S(C)(=O)=O)n2)CCC3)cc2c1CCC2 | > 100 µM | > 100 | > 100 µM | > 100 µM | > 100 µM | > 100 µM | > 100 µM | > 100 µM | > 100 µM | > 100 µM | – | – | – | – | – | –
12 | Cc1cc(C)c2c(=O)n(CC(O)CN3CCN(c4ncccn4)CC3)sc2n1 (stereo unspecified) | 30.4 µM | 33.6 | 32.7 µM | > 100 µM | 33 µM | 36.6 µM | 42 µM | 29.5 µM | 60.7 µM | 37.3 µM | – | – | – | – | – | –
13 | CC(C)=CCC[C@@H](C)c1c(O)c(O)c(C)c2nc3ccccc3nc12 | 12.7 µM | 4.45 | 9.26 µM | 0.8 µM | 18.1 µM | 23.8 µM | 8.48 µM | 15.9 µM | > 100 µM | 19.9 µM | – | – | – | – | – | –
14 | COC(=O)c1ccc2c(c1)CCN2C(=O)c1cc2c(cc1Br)OCO2 | 18.8 µM and 75.1 µM | 4.72 | 5.7 µM and 36.4 µM | 50 µM and > 100 µM | 2.62 µM and 3.9 µM | 50 µM and > 100 µM | 50 µM and > 100 µM | 0.244 µM and 0.841 µM | 50 µM and > 100 µM | 50 µM and > 100 µM | 16.6 | 0.742 | 1.13 | 19.2 | 0.252 | 4.88
15 | CCOC(=O)C(C(N)=O)c1nc2cc([N+](=O)[O-])ccc2nc1/C=C(\O)c1ccc(C)cc1 (stereo unspecified) | > 100 µM | 37.1 | 48.9 µM | > 100 µM | > 93.2 µM | > 71.1 µM | 33.9 µM | > 100 µM | > 92.3 µM | > 100 µM | – | – | – | – | – | –
16 | CC(CCC(=O)O)(c1cc(Br)c(O)c(Br)c1)c1cc(Br)c(O)c(Br)c1 | > 100 µM | > 100 | > 100 µM | > 100 µM | > 100 µM | > 100 µM | > 100 µM | > 100 µM | > 100 µM | > 100 µM | – | – | – | – | – | –
17 | Brc1ccc2c(c1)[C@H]1CCc3c([nH]c4ccccc34)[C@H]1N2 | 25.6 µM | 33.4 | 36.4 µM | 21.6 µM | 23.6 µM | 27 µM | 25.6 µM | 28.7 µM | 27.4 µM | 26.3 µM | – | – | – | – | – | –
18 | NC1=CN2c3ccccc3N(CC(=O)N3CCOCC3)C2C=C1 (stereo unspecified) | > 100 µM | > 100 | > 100 µM | > 100 µM | > 100 µM | > 100 µM | > 100 µM | > 100 µM | > 100 µM | > 100 µM | – | – | – | – | – | –
19 | CS(=O)(=O)c1ccc(C2=C(c3ccccc3)C(=O)OC2)cc1 | > 100 µM | > 100 | > 100 µM | > 100 µM | > 100 µM | > 100 µM | > 100 µM | > 100 µM | > 100 µM | > 100 µM | – | – | – | – | – | –
20 | Cc1cc(CC(O)(C(F)(F)F)C(F)(F)F)cc(CC(O)(C(F)(F)F)C(F)(F)F)n1 | 8.65 µM | 14.9 | 5.45 µM | 12 µM | 3.33 µM | 9.54 µM | 8.79 µM | 13 µM | > 100 µM | 12.6 µM | – | – | – | – | – | –
21 | COC(=O)[C@@]12CC3CN(Cc4c1[nH]c1ccccc41)C2CC3=O | > 100 µM | > 100 | > 100 µM | > 100 µM | > 100 µM | > 100 µM | > 100 µM | > 100 µM | > 100 µM | > 100 µM | – | – | – | – | – | –
22 | Nc1c2c(nc3ccccc13)-c1ccccc1CCC2 | 19.4 µM | 23.7 | 28.2 µM | 49.1 µM | 27.1 µM | 27.3 µM | 22.3 µM | 25.9 µM | 26.2 µM | 35.6 µM | – | – | – | – | – | –
23 | c1ccc2c(c1)N=c1ccccc1=P21c2ccccc2Nc2ccccc21 | 2.73 µM | 1.89 | 0.923 µM | 0.737 µM | 0.366 µM | 11.7 µM | 8.32 µM | 4.07 µM | 13 µM | 19.9 µM | – | – | – | – | – | –
